Results from US6627631B1, “Pharmaceutical composition containing desoxypeganine for the treatment of alcoholism” (priority 1999, dated 2003).

Experiments:
[1] = test system: ethanol-preferring rats (strain going back to the Finnish AA rat line); assay: Voluntary alcohol consumption of genetic ethanol-preferring rats (free choice of 10% ethanol or water); assay type: in vivo; details: for Alcohol consumption, absolute / Food intake / Alcohol preference (proportion of ethanol solution to total amount of drink) / Total amount of drink: n=6; for Food intake / Total amount of drink: not significant
Protocol: Influence of deoxypeganine HCl on the voluntary alcohol consumption of genetic ethanol-preferring rats.
The experimental animals were in each case 6 female rats of a strain which goes back to the Finnish AA rat line. The animals of this inbred strain prefer 10% alcohol as a drinking liquid if pure water is additionally offered to them (free choice).
The animals were kept individually in type 3 Makrolon cages at a room temperature of 23° C. and air changes nine times per hour. Dry feed granules (Altromin 1311; meal to which vitamins, minerals, amino acids and trace elements are added; manufacturer: Altromin
Spezialfutterwerke GmbH, Lage), drinking water and ethanol solution (10% v/v) were available to them in unrestricted amounts only during the dark phase from 20.00 hours to 08.00 hours, namely in special vessels which guarantee loss-free feeding and drinking. The amounts consumed were determined gravimetrically; the amounts of drink automatically and continuously with the aid of twelve weighing cells. The respective proportion of ethanol solution to the total amount of drink in % served as a measure of the alcohol preference: 0% means that only water, no ethanol solution, was drunk, 100% means that exclusively ethanol solution was drunk. The average alcohol preference of the untreated experimental animals was 78% or 83%.
Table: Influence of deoxypeganine HCl on the ingestive behavior of female ethanol-prefering rats (n=6). The values determined during the three-day preliminary period in each case are in round brackets.

cholinesterase = details: known pharmacological properties; cited from earlier work
[2] = in contrast to neostigmine; cited from earlier work
[3] = summary of the table, 15 and 30 mg/kg orally

Row | Compound | Alcohol consumption, absolute ([1]; 15 mg/kg orally, preliminary period value 6.47 ± 0.43, p<0.01) | Food intake ([1]; 15 mg/kg orally, preliminary period value 55.2 ± 1.3) | Alcohol preference (proportion of ethanol solution to total amount of drink) ([1]; 15 mg/kg orally, preliminary period value 82.8 ± 6.4, p<0.01) [%] | Total amount of drink ([1]; 15 mg/kg orally, preliminary period value 97.2 ± 2.3) | Alcohol consumption, absolute ([1]; 30 mg/kg orally, preliminary period value 6.30 ± 0.34, p<0.001) | Food intake ([1]; 30 mg/kg orally, preliminary period value 55.7 ± 2.1) | Alcohol preference (proportion of ethanol solution to total amount of drink) ([1]; 30 mg/kg orally, preliminary period value 77.8 ± 4.3, p<0.001) [%] | Total amount of drink ([1]; 30 mg/kg orally, preliminary period value 100.9 ± 1.9) | Cholinesterase inhibition, mode of action (cholinesterase) | Degradation of acetylcholine and of dopamine (cholinesterase) | Blood-brain barrier passage [2] | Desire for alcohol [1, 3] | Food intake and total amount of drink [1, 3]
1 | Cl.c1ccc2c(c1)CN1CCCC1=N2 [deoxypeganine HCl] | 3.17 ± 0.89 g/kg of BW | 57.7 ± 2.6 ns g/kg of BW | 45.0 ± 12.9 | 89.8 ± 5.6 ns g/kg of BW | 3.71 ± 0.42 g/kg of BW | 44.6 ± 7.6 ns g/kg of BW | 51.7 ± 6.4 | 90.6 ± 6.1 ns g/kg of BW |  |  |  |  | 
2 | c1ccc2c(c1)CN1CCCC1=N2 [deoxypeganine, 1,2,3,9-tetrahydropyrrolo[2,1-b]quinazoline] |  |  |  |  |  |  |  |  | reversibly acting cholinesterase inhibitors | inhibits not only the degradation of acetylcholine, but also that of dopamine | crosses the blood-brain barrier | considerably reduced | not significantly changed
